Columns and labels:
[1] = Stability of CV-8972 forms in solvents, X-ray powder diffraction; assay type: physicochemical
Method: Samples from batch 289-MBA-15-A (containing form B) were added to various solvents, incubated under various conditions, and analyzed by X-ray powder diffraction.
Samples from batch 289-MBA-16 (containing forms A and B) were added to various solvents, incubated under various conditions, and analyzed by X-ray powder diffraction.
Samples from batch S-18-0030513 (containing form A) were added to various solvents, incubated under various conditions, and analyzed by X-ray powder diffraction.

[2] = tested on: TAC mice; experiment: TAC mice: echocardiography; assay type: in vivo
[3] = tested on: TAC mice; experiment: TAC mice: left ventricular pressure with Mikro-tip catheter; assay type: in vivo; conditions: end of 6-week treatment
[4] = tested on: TAC mice; experiment: TAC mice, six weeks treatment: heart weight and heart weight/body weight; assay type: in vivo; conditions: 6 weeks
[5] = tested on: TAC mice; experiment: TAC mice: cardiac fibrosis, Masson's trichrome; assay type: in vivo; conditions: end of 6-week experiment
[6] = TMZ 6, NA 2.4, CV-8814 7.5, CV-8972 10 mg/kg/day

COc1ccc(CN2CCN(CCOC(=O)c3cccnc3)CC2)c(OC)c1OC [CV-8972, 2-(4-(2,3,4-trimethoxybenzyl)piperazin-1-yl)ethyl nicotinate]
XRPD results ([1]; batch 289-MBA-15-A (containing form B), ACN/H2O (90:10) Aw = 0.83, Slurry, RT, 5 d): Form A | XRPD results ([1]; batch 289-MBA-15-A (containing form B), Acetone/H2O (90:10) Aw = 0.72, Slurry, RT, 5 d): Form A | XRPD results ([1]; batch 289-MBA-15-A (containing form B), EtOAc/H2O (97:3) Aw = 0.94, Slurry, RT, 5 d): Form A | XRPD results ([1]; batch 289-MBA-15-A (containing form B), EtOAc, Slurry, RT, 5 d): Form A + Form B | XRPD results ([1]; batch 289-MBA-15-A (containing form B), EtOH/H2O (90:10) Aw = 0.52, Slurry, RT, 5 d): Form A | XRPD results ([1]; batch 289-MBA-15-A (containing form B), EtOH, CC from 60° C.): Form C + minor Form A | XRPD results ([1]; batch 289-MBA-15-A (containing form B), EtOH, Slurry, RT, 3 d): Form A + Form B | XRPD results ([1]; batch 289-MBA-15-A (containing form B), IPA/H2O (90:10) Aw = 0.67, Slurry, RT, 5 d): Form A | XRPD results ([1]; batch 289-MBA-15-A (containing form B), IPA/H2O (98:2) Aw = 0.26, Slurry, RT, 5 d): Form A | XRPD results ([1]; batch 289-MBA-15-A (containing form B), MEK, Slurry, RT, 5 d): Form A | XRPD results ([1]; batch 289-MBA-15-A (containing form B), MeOH/H2O (80:20) Aw = 0.48, Slurry, RT, 5 d): Form A | XRPD results ([1]; batch 289-MBA-15-A (containing form B), MeOH/H2O (95:5) Aw = 0.16, Slurry, RT, 5 d): Form A | XRPD results ([1]; batch 289-MBA-15-A (containing form B), MeOH, Slurry, RT, 5 d): Form A + Form B | XRPD results ([1]; batch 289-MBA-15-A (containing form B), no solvent, 100° C., 20 minutes, result wraps over r24-r26: Form B, shifted with minor Form A): Form B, | XRPD results ([1]; batch 289-MBA-16 (containing forms A and B), EtOAc, Attempted to dissolve at ~60° C., solids remained, cooled slowly to RT, let stir at RT from 60° C. (Table 60)): Form A + Form B | XRPD results ([1]; batch 289-MBA-16 (containing forms A and B), EtOAc, SC from 60° C. (Table 63)): Form A + Form B | XRPD results ([1]; batch 289-MBA-16 (containing forms A and B), EtOH, SC from 60° C.): Form A + Form C | XRPD results ([1]; batch 289-MBA-16 (containing forms A and B), EtOH, Slurry, RT, 3 d (Table 60)): Form A + Form B | XRPD results ([1]; batch 289-MBA-16 (containing forms A and B), EtOH, Slurry, RT, 3 d (Table 63)): Form A + Form B | XRPD results ([1]; batch 289-MBA-16 (containing forms A and B), MeOH/H2O (95:5), Slurry, overnight, 1 g scale): Form A | XRPD results ([1]; batch 289-MBA-16 (containing forms A and B), MeOH, VD w/ MTBE (Table 63)): Form A | XRPD results ([1]; batch 289-MBA-16 (containing forms A and B), MeOH, Vapor diffusion w/ MTBE (Table 60)): Form A | XRPD results ([1]; batch 289-MBA-16 (containing forms A and B), THF, SC from 60° C.): Form B | XRPD results ([1]; batch S-18-0030513 (containing form A), CHCl3, Slurry, RT): Form A | XRPD results ([1]; batch S-18-0030513 (containing form A), EtOAc, Slurry, RT): Form A | XRPD results ([1]; batch S-18-0030513 (containing form A), EtOH, Crash cool from 70° C.): Form A + Form C | XRPD results ([1]; batch S-18-0030513 (containing form A), MEK/H2O 99:1, Slow cool from 70° C.): Form A | XRPD results ([1]; batch S-18-0030513 (containing form A), THF, Slurry, RT): Form A | XRPD results ([1]; batch S-18-0030513 (containing form A), no solvent, 80° C., 20 minutes): Form A with slight peak shifting | XRPD results ([1]; batch S-18-0030513 (containing form A), no solvent, 97% RH Stress of Form A dried at 80° C. for 20 min): Form A | XRPD results ([1]; batch S-18-0030513 (containing form A), no solvent, 100° C., 20 minutes): Form B + Form A, shifted | XRPD results ([1]; batch S-18-0030513 (containing form A), no solvent, VO, RT): Form A | EF (in words) ([2]; 3-weeks after TAC): significantly increased | IVRT ([2]; 3-weeks after TAC): 32 ± 1 ms | IVSd ([2]; 3-weeks after TAC): 1.29±0.04 mm | LV mass ([2]; 3-weeks after TAC): 154 ± 8 mg | left ventricular FS ([2]; 3-weeks after TAC, CV-8814 7.5, CV-8972 10 mg/kg/day): 47%±3% | IVRT ([2]; 6-weeks after TAC): 31 ± 2 ms | IVSd ([2]; 6-weeks after TAC): 1.26±0.04 mm | LV mass ([2]; 6-weeks after TAC): 156 ± 10 mg | left ventricular FS ([2]; 6-weeks after TAC (end of the experiment)): 46%±3% | cardiac functions in TAC mice (in words) ([2]; conclusion, 6 weeks treatment): improved cardiac functions | EF (in words) ([2]; to the end of the study (6 weeks)): protective effect was sustained to the end of the study | +dp/dtm [3]: 4541±395 mm Hg/sec | -dp/dtm [3]: −4126±339 mm Hg/sec | left ventricular developed pressure (LVDP) [3, 6]: 116±9 mm Hg | cardiac remodeling in TAC mice (in words) [4, 6]: effectively inhibited cardiac remodeling | cardiac mass ([4]; TAC mice, TMZ 6, CV-8814 7.5, CV-8972 10 mg/kg/day, osmotic minipump): 225 ± 11 mg | heart weight to body weight ratio ([4]; TAC mice, TMZ 6, NA 2.4, CV-8814 7.5, CV-8972 10 mg/kg/day, subcutaneous osmotic minipump): 7.4 ± 0.3 mg/g | cardiac fibrosis (fibrotic area to whole heart tissue area) [5]: 6.6±0.6%

— patent US20220249463A1, “METHODS OF ALTERING CARDIAC REMODELING USING COMPOUNDS THAT PROMOTE GLUCOSE OXIDATION” (IMBRIA PHARMACEUTICALS, INC., priority 2019, published 2022)
